According to US9125913B2, “Bcl-2-selective apoptosis-inducing agents for the treatment of cancer and immune diseases” (AbbVie Inc., priority 2008, dated 2015):

Tested on: GST-Bcl-2
Experiment: TR-FRET binding assay, Bcl-2
Settings: TR-FRET Ki values
How it was run: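 Compounds serially diluted in DMSO from 50 μM (2× starting concentration, 10% DMSO), mixed with GST-tagged protein, F-Bak peptide probe and Tb-labeled antibody, incubated 3 h at room temperature.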

SMILES	Binding selectivity ratio (Bcl-XL Ki/Bcl-2 Ki)
CC1(C)CCC(CN2CCN(c3ccc(C(=O)NS(=O)(=O)c4ccc(NCC5(N)CCOCC5)c([N+](=O)[O-])c4)c(Oc4ccc5[nH]ccc5c4)c3)CC2CO)=C(c2ccc(Cl)cc2)C1 (stereo not shown) [EXAMPLE 237, N-[(4-{[(4-aminotetrahydro-2H-pyran-4-yl)methyl]amino}-3-nitrophenyl)sulfonyl]-4-[4-{[2-(4-chlorophenyl)-4,4-dimethylcyclohex-1-en-1-yl]methyl}-3-(hydroxymethyl)piperazin-1-yl]-2-(1H-indol-5-yloxy)benzamide]	668.3
CO[C@H]1CC[C@H](CNc2ccc(S(=O)(=O)NC(=O)c3ccc(N4CCN(CC5=C(c6ccc(Cl)cc6)CC(C)(C)CC5)CC4)cc3Oc3cccc4[nH]ncc34)cc2[N+](=O)[O-])CC1 [EXAMPLE 446, Trans-4-(4-{[2-(4-chlorophenyl)-4,4-dimethylcyclohex-1-en-1-yl]methyl}piperazin-1-yl)-2-(1H-indazol-4-yloxy)-N-[(4-{[(4-methoxycyclohexyl)methyl]amino}-3-nitrophenyl)sulfonyl]benzamide]	508.4
CC1(C)CCC(CN2CCN(c3ccc(C(=O)NS(=O)(=O)c4cnc(OCC5(F)CCOCC5)c(C#N)c4)c(Oc4ccc5[nH]ccc5c4)c3)CC2)=C(c2ccc(Cl)cc2)C1 [EXAMPLE 385, 4-(4-{[2-(4-chlorophenyl)-4,4-dimethylcyclohex-1-en-1-yl]methyl}piperazin-1-yl)-N-({5-cyano-6-[(4-fluorotetrahydro-2H-pyran-4-yl)methoxy]pyridin-3-yl}sulfonyl)-2-(1H-indol-5-yloxy)benzamide]	2096.5
CC(C)(C)c1ccc(CN2CCN(c3ccc(C(=O)NS(=O)(=O)c4ccc(NCC5CCOCC5)c([N+](=O)[O-])c4)c(Oc4ccc5[nH]ccc5c4)c3)CC2)c(-c2ccc(Cl)cc2)c1 [EXAMPLE 341, 4-{4-[(5-tert-butyl-4′-chloro-1,1′-biphenyl-2-yl)methyl]piperazin-1-yl}-2-(1H-indol-5-yloxy)-N-({3-nitro-4-[(tetrahydro-2H-pyran-4-ylmethyl)amino]phenyl}sulfonyl)benzamide]	>50.8
O=C(NS(=O)(=O)c1ccc(NCC2CCOCC2)c([N+](=O)[O-])c1)c1ccc(N2CCN(Cc3cc(N4CCOCC4)ccc3-c3ccc(Cl)cc3)CC2)cc1Oc1cccc2[nH]ccc12 [EXAMPLE 198, 4-{4-[(4′-chloro-4-morpholin-4-yl-1,1′-biphenyl-2-yl)methyl]piperazin-1-yl}-2-(1H-indol-4-yloxy)-N-({3-nitro-4-[(tetrahydro-2H-pyran-4-ylmethyl)amino]phenyl}sulfonyl)benzamide]	>166.4
CC1(C)CCC(CN2CCN(c3ccc(C(=O)NS(=O)(=O)c4ccc(NC5CCN(CCCO)CC5)c([N+](=O)[O-])c4)c(Oc4ccc5[nH]ccc5c4)c3)CC2)=C(c2ccc(Cl)cc2)C1 [EXAMPLE 197, 4-(4-{[2-(4-chlorophenyl)-4,4-dimethylcyclohex-1-en-1-yl]methyl}piperazin-1-yl)-N-[(4-{[1-(3-hydroxypropyl)piperidin-4-yl]amino}-3-nitrophenyl)sulfonyl]-2-(1H-indol-5-yloxy)benzamide]	193
CC1(C)CCC(CN2CCN(c3ccc(C(=O)NS(=O)(=O)c4ccc(N[C@@H]5CCN(CC(F)F)C5)c([N+](=O)[O-])c4)c(Oc4cccc5[nH]cnc45)c3)CC2)=C(c2ccc(Cl)cc2)C1 [EXAMPLE 407, 2-(1H-benzimidazol-4-yloxy)-4-(4-{[2-(4-chlorophenyl)-4,4-dimethylcyclohex-1-en-1-yl]methyl}piperazin-1-yl)-N-[(4-{[(3R)-1-(2,2-difluoroethyl)pyrrolidin-3-yl]amino}-3-nitrophenyl)sulfonyl]benzamide]	4931
CN(C)CCOc1ccc(-c2ccc(Cl)cc2)c(CN2CCN(c3ccc(C(=O)NS(=O)(=O)c4ccc(NN5CCN(C)CC5)c([N+](=O)[O-])c4)c(Oc4cccc5[nH]ccc45)c3)CC2)c1 [EXAMPLE 274, 4-[4-({4′-chloro-4-[2-(dimethylamino)ethoxy]-1,1′-biphenyl-2-yl}methyl)piperazin-1-yl]-2-(1H-indol-4-yloxy)-N-({4-[(4-methylpiperazin-1-yl)amino]-3-nitrophenyl}sulfonyl)benzamide]	244.6
COCCNc1ccc(S(=O)(=O)NC(=O)c2ccc(N3CCN(CC4=C(c5ccc(Cl)cc5)CC(C)(C)CC4)CC3)cc2Oc2cccc3[nH]ccc23)cc1S(=O)(=O)C(F)(F)F [EXAMPLE 309, 4-(4-{[2-(4-chlorophenyl)-4,4-dimethylcyclohex-1-en-1-yl]methyl}piperazin-1-yl)-2-(1H-indol-4-yloxy)-N-({4-[(2-methoxyethyl)amino]-3-[(trifluoromethyl)sulfonyl]phenyl}sulfonyl)benzamide]	>149.4
Cc1ccc(S(=O)(=O)NC(=O)c2ccc(N3CCN(Cc4ccccc4-c4ccc(Cl)cc4)CC3)cc2Oc2ccccc2)cc1 [Example 61, 4-{4-[(4′-chloro-1,1′-biphenyl-2-yl)methyl]piperazin-1-yl}-N-[(4-methylphenyl)sulfonyl]-2-phenoxybenzamide]	>12.6
CC1(C)CCC(CN2CCN(c3ccc(C(=O)NS(=O)(=O)c4ccc(NCC5COCCO5)c([N+](=O)[O-])c4)c(Oc4cccc5[nH]cnc45)c3)CC2)=C(c2ccc(Cl)cc2)C1 (stereo not shown) [EXAMPLE 450, 2-(1H-benzimidazol-4-yloxy)-4-(4-{[2-(4-chlorophenyl)-4,4-dimethylcyclohex-1-en-1-yl]methyl}piperazin-1-yl)-N-({4-[(1,4-dioxan-2-ylmethyl)amino]-3-nitrophenyl}sulfonyl)benzamide]	107.3
CC1(C)CCC(CN2CCN(c3ccc(C(=O)NS(=O)(=O)c4ccc(NCC5CN(C6COC6)CCO5)c([N+](=O)[O-])c4)c(Oc4cccc5[nH]cnc45)c3)CC2)=C(c2ccc(Cl)cc2)C1 (stereo not shown) [EXAMPLE 433, 2-(1H-benzimidazol-4-yloxy)-4-(4-{[2-(4-chlorophenyl)-4,4-dimethylcyclohex-1-en-1-yl]methyl}piperazin-1-yl)-N-[(3-nitro-4-{[(4-oxetan-3-ylmorpholin-2-yl)methyl]amino}phenyl)sulfonyl]benzamide]	228.55
CC1(C)CCC(CN2CCN(c3ccc(C(=O)NS(=O)(=O)c4cnc(OCC5(F)CCN(CC#N)CC5)c(Cl)c4)c(Oc4cccc5[nH]ncc45)c3)CC2)=C(c2ccc(Cl)cc2)C1 [EXAMPLE 419, N-[(5-chloro-6-{[1-(cyanomethyl)-4-fluoropiperidin-4-yl]methoxy}pyridin-3-yl)sulfonyl]-4-(4-{[2-(4-chlorophenyl)-4,4-dimethylcyclohex-1-en-1-yl]methyl}piperazin-1-yl)-2-(1H-indazol-4-yloxy)benzamide]	1071
O=C(NS(=O)(=O)c1ccc(NCCn2nccn2)c([N+](=O)[O-])c1)c1ccc(N2CCN(Cc3ccccc3-c3ccc(Cl)cc3)CC2)cc1Oc1ccccc1 [Example 165, 4-{4-[(4′-chloro-1,1′-biphenyl-2-yl)methyl]piperazin-1-yl}-N-[(3-nitro-4-{[2-(2H-1,2,3-triazol-2-yl)ethyl]amino}phenyl)sulfonyl]-2-phenoxybenzamide]	44.5
CN1CCN(Nc2ccc(S(=O)(=O)NC(=O)c3ccc(N4CCN(CC5=C(c6ccc(Cl)cc6)CC(C)(C)CC5)CC4)cc3Oc3cccc4[nH]ccc34)cc2[N+](=O)[O-])CC1 [EXAMPLE 190, 4-(4-{[2-(4-chlorophenyl)-4,4-dimethylcyclohex-1-en-1-yl]methyl}piperazin-1-yl)-2-(1H-indol-4-yloxy)-N-({4-[(4-methylpiperazin-1-yl)amino]-3-nitrophenyl}sulfonyl)benzamide]	189.6
COCCOCCN1CC[C@@H](Nc2ccc(S(=O)(=O)NC(=O)c3ccc(N4CCN(CC5=C(c6ccc(Cl)cc6)CC(C)(C)CC5)CC4)cc3Oc3cccc4[nH]cnc34)cc2[N+](=O)[O-])C1 [EXAMPLE 429, 2-(1H-benzimidazol-4-yloxy)-4-(4-{[2-(4-chlorophenyl)-4,4-dimethylcyclohex-1-en-1-yl]methyl}piperazin-1-yl)-N-{[4-({(3R)-1-[2-(2-methoxyethoxy)ethyl]pyrrolidin-3-yl}amino)-3-nitrophenyl]sulfonyl}benzamide]	140.65
CC1(C)CCC(CN2CCN(c3ccc(C(=O)NS(=O)(=O)c4cnc(OCCC5CCCO5)c(Cl)c4)c(Oc4cccc5[nH]ncc45)c3)CC2)=C(c2ccc(Cl)cc2)C1 (stereo not shown) [EXAMPLE 461, 4-(4-{[2-(4-chlorophenyl)-4,4-dimethylcyclohex-1-en-1-yl]methyl}piperazin-1-yl)-N-{[5-chloro-6-(2-tetrahydrofuran-2-ylethoxy)pyridin-3-yl]sulfonyl}-2-(1H-indazol-4-yloxy)benzamide]	39.44
CC(c1ccccc1-c1ccc(Cl)cc1)N1CCN(c2ccc(C(=O)NS(=O)(=O)c3ccc(NCC4CCOCC4)c([N+](=O)[O-])c3)c(Oc3ccc4[nH]ccc4c3)c2)CC1 (stereo not shown) [EXAMPLE 252, 4-{4-[1-(4′-chloro-1,1′-biphenyl-2-yl)ethyl]piperazin-1-yl}-2-(1H-indol-5-yloxy)-N-({3-nitro-4-[(tetrahydro-2H-pyran-4-ylmethyl)amino]phenyl}sulfonyl)benzamide]	>8570.3
CC1(C)CCC(CN2CCN(c3ccc(C(=O)NS(=O)(=O)c4ccc(NC5CCN(C6Cc7ccccc7C6)CC5)c([N+](=O)[O-])c4)c(Oc4ccc5[nH]ccc5c4)c3)CC2)=C(c2ccc(Cl)cc2)C1 [EXAMPLE 228, 4-(4-{[2-(4-chlorophenyl)-4,4-dimethylcyclohex-1-en-1-yl]methyl}piperazin-1-yl)-N-[(4-{[1-(2,3-dihydro-1H-inden-2-yl)piperidin-4-yl]amino}-3-nitrophenyl)sulfonyl]-2-(1H-indol-5-yloxy)benzamide]	>141.4
